Some targets named below: Collagenase 3 (Homo sapiens, UniProt P45452); Carbonic anhydrase 1 (Homo sapiens, UniProt P00915); Carbonic anhydrase 2 (Homo sapiens, UniProt P00918).
In test [1] the target is Matrix metalloproteinase-16 (Homo sapiens, UniProt P51512). Put plainly: Inhibition of MMP16.
The target in another test is Neutrophil collagenase (Homo sapiens, UniProt P22894). Put plainly: Inhibition of MMP8.
Test [2] is filed under the species Homo sapiens. As to the kind of experiment: Selectivity for human recombinant CA9 to human recombinant CA1.
Test [3] has as its target 72 kDa type IV collagenase (Homo sapiens, UniProt P08253). As to the kind of experiment: Inhibition of human recombinant MMP2 transfected in mouse melanoma cells. In kind it is cell-based.
The target of test [4] is Matrix metalloproteinase-9 (Homo sapiens, UniProt P14780). As to the kind of experiment: Inhibition of MMP9.
Matrix metalloproteinase-9, sequence (P14780 whole entry): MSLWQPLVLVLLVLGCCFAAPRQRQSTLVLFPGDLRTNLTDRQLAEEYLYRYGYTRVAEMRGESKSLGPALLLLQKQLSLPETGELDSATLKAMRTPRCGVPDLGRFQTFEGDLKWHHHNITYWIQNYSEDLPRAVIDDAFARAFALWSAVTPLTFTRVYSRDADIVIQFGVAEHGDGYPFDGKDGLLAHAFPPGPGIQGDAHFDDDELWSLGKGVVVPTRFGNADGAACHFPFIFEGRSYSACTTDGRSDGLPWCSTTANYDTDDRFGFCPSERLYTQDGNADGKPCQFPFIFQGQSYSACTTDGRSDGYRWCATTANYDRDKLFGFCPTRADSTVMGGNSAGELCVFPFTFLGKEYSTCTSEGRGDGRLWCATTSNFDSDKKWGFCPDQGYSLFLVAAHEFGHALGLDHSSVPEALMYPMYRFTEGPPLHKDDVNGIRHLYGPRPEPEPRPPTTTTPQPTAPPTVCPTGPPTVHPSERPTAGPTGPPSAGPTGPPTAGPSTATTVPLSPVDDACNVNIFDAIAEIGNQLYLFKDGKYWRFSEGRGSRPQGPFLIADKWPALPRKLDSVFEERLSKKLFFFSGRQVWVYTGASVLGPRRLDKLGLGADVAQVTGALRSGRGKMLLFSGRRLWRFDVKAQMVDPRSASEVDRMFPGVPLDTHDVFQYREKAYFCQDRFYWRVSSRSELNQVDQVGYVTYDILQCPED
Test [5] concerns the target Matrix metalloproteinase-14 (Homo sapiens, UniProt P50281). Put plainly: Inhibition of MMP14.
The species entered for test [6] is Homo sapiens. Put plainly: Selectivity for human recombinant CA9 to human recombinant CA2.
Another test has as its target T1, Interstitial collagenase (Homo sapiens, UniProt P03956).
T1 sequence (P03956 whole entry): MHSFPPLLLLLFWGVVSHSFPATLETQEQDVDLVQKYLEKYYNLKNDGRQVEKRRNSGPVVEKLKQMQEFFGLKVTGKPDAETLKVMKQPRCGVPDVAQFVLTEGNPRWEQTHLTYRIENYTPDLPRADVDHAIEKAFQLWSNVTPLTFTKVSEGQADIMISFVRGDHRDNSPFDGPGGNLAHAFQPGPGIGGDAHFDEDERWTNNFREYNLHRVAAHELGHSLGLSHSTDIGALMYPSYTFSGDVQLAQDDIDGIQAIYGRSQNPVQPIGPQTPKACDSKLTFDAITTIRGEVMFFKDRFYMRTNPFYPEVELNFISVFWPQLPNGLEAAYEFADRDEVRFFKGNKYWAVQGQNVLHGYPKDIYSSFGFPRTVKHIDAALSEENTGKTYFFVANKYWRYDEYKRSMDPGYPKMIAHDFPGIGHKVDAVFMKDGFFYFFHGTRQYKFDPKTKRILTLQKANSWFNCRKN
As to the kind of experiment: Inhibition of MMP1.

For test [7], the target named is Disintegrin and metalloproteinase domain-containing protein 17 (Homo sapiens, UniProt P78536). Put plainly: Inhibition of TACE.
Disintegrin and metalloproteinase domain-containing protein 17, sequence (P78536 whole entry, the tested form may be a part): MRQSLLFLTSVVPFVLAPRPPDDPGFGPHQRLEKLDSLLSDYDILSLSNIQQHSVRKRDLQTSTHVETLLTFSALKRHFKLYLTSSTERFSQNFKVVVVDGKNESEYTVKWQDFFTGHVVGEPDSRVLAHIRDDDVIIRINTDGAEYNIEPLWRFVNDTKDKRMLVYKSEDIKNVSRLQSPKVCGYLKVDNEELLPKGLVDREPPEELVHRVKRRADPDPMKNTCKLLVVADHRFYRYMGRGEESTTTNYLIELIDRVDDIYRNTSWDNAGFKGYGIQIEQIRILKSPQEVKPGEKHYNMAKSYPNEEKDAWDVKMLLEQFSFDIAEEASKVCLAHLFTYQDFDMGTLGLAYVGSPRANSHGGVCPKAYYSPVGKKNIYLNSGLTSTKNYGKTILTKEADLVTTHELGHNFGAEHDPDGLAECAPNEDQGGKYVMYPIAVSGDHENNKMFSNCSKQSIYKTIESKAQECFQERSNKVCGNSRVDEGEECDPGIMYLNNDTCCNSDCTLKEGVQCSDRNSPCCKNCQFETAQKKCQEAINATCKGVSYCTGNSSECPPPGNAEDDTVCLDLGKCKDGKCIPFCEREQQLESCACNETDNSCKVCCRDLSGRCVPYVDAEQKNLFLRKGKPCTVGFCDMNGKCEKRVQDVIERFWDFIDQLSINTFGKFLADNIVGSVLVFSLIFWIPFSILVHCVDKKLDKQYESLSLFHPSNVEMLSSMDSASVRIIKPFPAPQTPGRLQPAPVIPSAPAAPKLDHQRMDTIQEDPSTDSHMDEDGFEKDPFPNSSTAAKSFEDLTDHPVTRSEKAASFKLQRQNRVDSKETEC
Another test has as its target Carbonic anhydrase 9 (Homo sapiens, UniProt Q16790). As to the kind of experiment: Inhibition of human recombinant CA9 catalytic domain by stopped-flow CO2 hydrase assay.

Neutrophil collagenase, sequence (P22894 whole entry): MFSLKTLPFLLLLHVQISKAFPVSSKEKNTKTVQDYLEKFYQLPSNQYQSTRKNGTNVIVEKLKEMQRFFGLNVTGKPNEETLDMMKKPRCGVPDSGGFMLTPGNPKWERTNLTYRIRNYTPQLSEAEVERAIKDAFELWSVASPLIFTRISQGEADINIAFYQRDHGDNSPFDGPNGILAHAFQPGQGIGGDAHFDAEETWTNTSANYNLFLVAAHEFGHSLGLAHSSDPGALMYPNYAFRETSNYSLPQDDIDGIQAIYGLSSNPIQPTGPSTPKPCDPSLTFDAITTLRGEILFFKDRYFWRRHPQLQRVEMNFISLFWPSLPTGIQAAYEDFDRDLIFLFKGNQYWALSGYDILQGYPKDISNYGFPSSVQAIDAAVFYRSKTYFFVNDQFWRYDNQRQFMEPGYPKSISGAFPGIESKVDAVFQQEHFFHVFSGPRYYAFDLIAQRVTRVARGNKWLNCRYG
Carbonic anhydrase 1, sequence (P00915 whole entry): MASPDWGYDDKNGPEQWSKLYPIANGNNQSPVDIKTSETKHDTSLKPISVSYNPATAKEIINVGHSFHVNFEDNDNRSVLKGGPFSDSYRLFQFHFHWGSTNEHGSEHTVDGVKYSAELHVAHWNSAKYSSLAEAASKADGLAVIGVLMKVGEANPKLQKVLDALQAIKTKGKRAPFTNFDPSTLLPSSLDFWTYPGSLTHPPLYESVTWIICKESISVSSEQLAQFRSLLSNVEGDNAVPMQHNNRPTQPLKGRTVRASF
72 kDa type IV collagenase, sequence (P08253 whole entry): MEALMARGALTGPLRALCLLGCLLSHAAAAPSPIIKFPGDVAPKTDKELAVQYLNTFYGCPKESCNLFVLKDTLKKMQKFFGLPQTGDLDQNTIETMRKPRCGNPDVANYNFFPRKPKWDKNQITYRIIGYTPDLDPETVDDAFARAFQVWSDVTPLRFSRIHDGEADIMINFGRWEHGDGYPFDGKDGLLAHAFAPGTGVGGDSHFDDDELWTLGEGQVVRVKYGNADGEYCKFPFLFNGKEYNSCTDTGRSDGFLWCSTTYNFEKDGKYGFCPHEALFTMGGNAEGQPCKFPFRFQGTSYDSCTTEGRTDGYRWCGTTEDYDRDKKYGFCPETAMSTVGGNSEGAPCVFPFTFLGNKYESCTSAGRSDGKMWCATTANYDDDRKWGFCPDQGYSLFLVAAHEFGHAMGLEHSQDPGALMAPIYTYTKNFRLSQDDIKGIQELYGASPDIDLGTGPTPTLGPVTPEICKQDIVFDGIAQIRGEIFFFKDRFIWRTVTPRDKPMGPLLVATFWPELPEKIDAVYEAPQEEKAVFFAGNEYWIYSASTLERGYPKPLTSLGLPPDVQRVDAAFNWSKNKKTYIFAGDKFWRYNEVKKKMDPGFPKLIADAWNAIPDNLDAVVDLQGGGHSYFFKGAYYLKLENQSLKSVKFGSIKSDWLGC
Matrix metalloproteinase-16, sequence (P51512 whole entry): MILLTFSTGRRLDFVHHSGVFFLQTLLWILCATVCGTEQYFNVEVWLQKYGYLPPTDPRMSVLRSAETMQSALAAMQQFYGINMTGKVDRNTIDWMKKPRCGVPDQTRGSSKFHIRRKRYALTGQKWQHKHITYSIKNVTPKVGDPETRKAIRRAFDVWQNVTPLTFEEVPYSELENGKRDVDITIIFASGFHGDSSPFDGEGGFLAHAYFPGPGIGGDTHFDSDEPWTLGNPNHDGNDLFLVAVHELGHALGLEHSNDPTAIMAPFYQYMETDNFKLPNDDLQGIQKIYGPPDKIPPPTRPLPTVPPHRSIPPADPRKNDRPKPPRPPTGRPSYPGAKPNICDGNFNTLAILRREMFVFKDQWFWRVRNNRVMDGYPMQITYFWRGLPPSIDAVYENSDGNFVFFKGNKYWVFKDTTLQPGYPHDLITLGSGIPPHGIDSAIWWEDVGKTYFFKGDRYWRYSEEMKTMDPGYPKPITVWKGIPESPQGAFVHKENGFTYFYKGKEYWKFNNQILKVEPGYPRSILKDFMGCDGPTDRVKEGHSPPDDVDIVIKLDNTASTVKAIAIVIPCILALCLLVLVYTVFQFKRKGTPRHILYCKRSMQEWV
Description for Carbonic anhydrase 1: Inhibition of human recombinant CA1 by stopped-flow CO2 hydrase assay
Description for Carbonic anhydrase 2: Inhibition of human recombinant CA2 by stopped-flow CO2 hydrase assay

One may read the IC50 as the concentration needed to halve the response being measured. Take `COc1ccc(S(=O)(=O)N(Cc2cccnc2)[C@@H](C(=O)NO)C(C)C)cc1` [CGS-27023A]: in test [1], inhibition was half-maximal at 6.8 nM (IC50).

As for `O=C(O)CN(CC(=O)NO)S(=O)(=O)c1ccc(Oc2ccccc2)cc1`, the IC50 against Neutrophil collagenase stood at 3.7 nM; in [1], 11.4 nM; at Collagenase 3, 1.6 nM; in test [3] it was 1.2 nM; in [4] it was 3.2 nM; in test [5] it was 14 nM. The compound also had an IC50 against Interstitial collagenase of 1530 nM. The Selectivity ratio was 7.9 in the test filed under Homo sapiens [2] and 1.3 in the test listed under Homo sapiens [6].

Consider `CC(C)[C@H](C(=O)NO)N(CC(=O)O)S(=O)(=O)c1ccc(-c2ccccc2)cc1`, for which the IC50 was found to be 4.3 nM at Neutrophil collagenase; 24.7 nM in test [3]; 27.7 nM in test [4]; 306 nM in test [5]; 236 nM on Interstitial collagenase. The values for the Selectivity ratio in the test listed under Homo sapiens [2] and in the test filed under Homo sapiens [6] were 7.9 and 1.3, respectively.

In general, Ki refers to a dissociation constant, usually derived from enzyme kinetics or from competition with a known ligand. At Carbonic anhydrase 1, `NS(=O)(=O)c1ccc(CCNC(=O)CN(CC(=O)NO)Cc2ccccc2)cc1` registered an inhibitory constant (Ki) of 2340 nM. Moreover, the IC50 in [3] was above 100000 nM; in test [4], above 300000 nM; in test [5] it was above 100000 nM.

As to `CC(C)[C@H](C(=O)NO)N(CC(=O)NCCc1ccc(S(N)(=O)=O)cc1)S(=O)(=O)c1ccc(Oc2ccccc2)cc1`, the inhibition constant Ki at Carbonic anhydrase 1 turned out to be 730 nM; at Carbonic anhydrase 2, 4.2 nM; on Carbonic anhydrase 9 it was 3.3 nM. The half-maximal inhibitory concentration (IC50) against Neutrophil collagenase amounted to 0.29 nM; in test [1], 0.31 nM; against Collagenase 3, 0.12 nM; in test [3], 0.35 nM; in test [4], 0.21 nM; in test [7], 55 nM. Moreover, the IC50 in [5] is 0.32 nM; against Interstitial collagenase it was 7.8 nM. Also, in the test listed under Homo sapiens [6], the Selectivity ratio worked out at 1.3.

Regarding `COc1ccc(S(=O)(=O)N(CC(=O)NO)CC(=O)NCCc2ccc(S(N)(=O)=O)cc2)cc1`, the Ki on Carbonic anhydrase 1 is 1770 nM; at Carbonic anhydrase 9, 13 nM. Besides, the concentration for half-maximal inhibition (IC50) is 59 nM against Neutrophil collagenase; 44 nM in test [1]; 25.3 nM in test [3]; 53.7 nM in test [4]; 89.8 nM in test [5]; 532 nM on Interstitial collagenase.

Take `NS(=O)(=O)c1ccc(CCNC(=O)CN(CC(=O)NO)S(=O)(=O)c2ccc(-c3ccccc3)cc2)cc1`: the IC50 was found to be 35 nM against Neutrophil collagenase; 186 nM in test [1]; 16.2 nM in test [3]; 66 nM in test [4]; 260 nM in test [5]; 542 nM at Interstitial collagenase.

Consider `NS(=O)(=O)c1ccc(CCNC(=O)CN(CC(=O)NO)S(=O)(=O)c2ccc(Oc3ccccc3)cc2)cc1`, for which the IC50 at Neutrophil collagenase stood at 0.74 nM; in [1] it was 1 nM; in test [3], 1.57 nM; in test [4], 0.51 nM; in test [5], 2.1 nM; against Interstitial collagenase, 143 nM.

As to `NS(=O)(=O)c1ccc(CCNC(=O)CN(CC(=O)O)S(=O)(=O)c2ccc(-c3ccccc3)cc2)cc1`, the Ki was 116 nM on Carbonic anhydrase 1 and 3.8 nM at Carbonic anhydrase 9. Moreover, the IC50 against Neutrophil collagenase turned out to be 8200 nM; in test [3] it was 5120 nM; in test [5] it was 33900 nM.

Consider `COc1ccc(S(=O)(=O)N(CC(=O)O)[C@@H](C(=O)NO)C(C)C)cc1`, for which the half-inhibitory concentration (IC50) worked out at 29.2 nM on Neutrophil collagenase; 145 nM in [3]; 62 nM in test [4]; 353 nM in [5]; 235 nM against Interstitial collagenase. The Selectivity ratio was 7.9 in the test listed under Homo sapiens [2] and 1.3 in the test listed under Homo sapiens [6].

Turning to `CC(C)[C@H](C(=O)NO)N(CC(=O)O)S(=O)(=O)c1ccc(Oc2ccccc2)cc1`, the 50% inhibitory concentration (IC50) was 0.4 nM against Neutrophil collagenase; 1.56 nM in [1]; 0.33 nM against Collagenase 3; 0.5 nM in test [3]; 0.77 nM in [4]; 2290 nM in test [7]. In addition, the values for the IC50 (in test [5]; against Interstitial collagenase) were 3.9 nM and 59 nM, respectively. The Selectivity ratio in the test filed under Homo sapiens [2] stood at 7.9; in the test filed under Homo sapiens [6], 1.3.

For the compound `COc1ccc(S(=O)(=O)N(CC(=O)O)CC(=O)NO)cc1`, the half-inhibitory concentration (IC50) against Neutrophil collagenase came out at 1010 nM; in test [1] it was 996 nM; in [3], 193 nM; in test [4], 322 nM; in test [5] it was 1690 nM; against Interstitial collagenase, 6770 nM.

As for `NS(=O)(=O)c1ccc(CCNC(=O)CN(CC(=O)O)S(=O)(=O)c2ccc(Oc3ccccc3)cc2)cc1`, the Ki was found to be 3430 nM at Carbonic anhydrase 1 and 6.4 nM on Carbonic anhydrase 9. The results for the IC50 (against Neutrophil collagenase; in test [3]; in test [5]) were 4360 nM, 2230 nM and 8950 nM, respectively.

Source of the values: ChEMBL document CHEMBL1151743, “Dual inhibitors of matrix metalloproteinases and carbonic anhydrases: iminodiacetyl-based hydroxamate-benzenesulfonamide conjugates” (J Med Chem, 2008).
